Values joined by “and” are separate entries in the source; they are usually repeats but may differ in a detail not shown here. Equal values may be shown once.
Tests used:
physchem = conditions: organic solvent or mixture, thermodynamic from solid
[1] = Stability of solutions in MeCN monitored by 1H NMR or UV-vis spectroscopy; assay type: physicochemical
Procedure: The stabilities of 10a, 10a^(•) and Na-10a^(−) were monitored as solutions in MeCN by ^1H NMR spectroscopy or UV-vis spectroscopy. Separate solutions of 10a, 10a^(•) and Na-10a^(−) in MeCN were prepared at 480 mM, 540 mM and 39 mM concentrations, respectively. The parent compound 10a was monitored by ^1H NMR spectroscopy against an internal standard of 1,3,5-trimethoxybenzene. […] Solutions of the reduced species 10a^(•) and Na-10a^(−) were stored at room temperature under nitrogen, and the concentrations of the solutions were measured periodically over 36 h or 48 h by UV-vis spectroscopy (FIG. 13).

[2] = Cyclic voltammetry (CV) of anolyte candidates in a three-electrode cell; assay type: physicochemical; conditions: for baseline (initial) current at starting potential of +1 V: MeCN/LiBF4, 0.01 M, 100 mV/s; for current ratio i9a(−)/iLi-9a: 0.1 M LiBF4 in MeCN
[3] = Solubility in MeCN by UV-vis spectroscopy under inert atmosphere
[4] = Simulation of CVs fit to experimental data: Li+ association/dissociation with charged anolyte; assay type: physicochemical
Procedure: To obtain values for the rates for association as well as the equilibrium constant for formation of Li-9a, the redox system proposed in Scheme 9 was computationally modeled. Diffusion constants for the anolyte were calculated to be on the order of 2×10^−9 m^2/s by analysis of changes in the potential at the first reductive couple with variable scan rates. This value was applied for all species in the simulation based on their similar molecular weights. A resistance of 400 ohms and no capacitance was simulated for all couples. With these parameters, the simulations were fit to experimental data acquired at variable scan rates (FIG. 9) in order to estimate the rate constants for association and dissociation of Li^+. The experimentally measured CVs features were accurately reproduced when the rate constant for Li^+ coordination was 10 M^−1s^−1 and the rate constant for dissociation was 0.5 s^−1. These rate constants indicate that the equilibrium constant for binding of Li^+ to 9a^(−) is on the order of 20 M^−1.
This system was further investigated at higher concentrations of Li^+. CVs were acquired at concentrations of LiBF4 ranging from 57 mM to 260 mM with a constant 0.1 M concentration of 9a (FIG. 9b; solid lines). As expected, higher concentrations of LiBF4 led to greater currents from the oxidation of Li-9a. The calculated rate constants (ki=10 M^−1s^−1, k^−1=0.5 s^−1) were employed to model the effects of LiBF4 concentration on the current peak-heights. The results are illustrated in FIG. 9b (dashed lines) and are in full agreement with the experimentally measured CVs.

[5] = MeCN/LiBF4, cathodic sweep starting at +1 V
[6] = simulation fit to experimental CVs at variable scan rates, MeCN/LiBF4

| SMILES | solubility (physchem) [mM] | decomposition in solution ([1]; 480 mM in MeCN, 1H NMR vs internal standard, four days, in the presence of air and moisture) | difference of first reduction potential, 9a versus 10a ([2]; MeCN/LiBF4) [V] | peak height ratios of two reductive couples ([2]; MeCN/LiBF4) | second reduction more positive than that of 9a ([2]; MeCN/LiBF4) [V] | baseline (initial) current at starting potential of +1 V [2] | concentration of solution on storage ([1]; MeCN, room temperature under nitrogen, UV-vis over 36 h or 48 h, 540 mM (10a•), 39 mM (Na-10a−)) | solubility (saturation concentration) [3] [mM] | current ratio i9a(−)/iLi-9a ([2]; 50 mV/s) | current ratio i9a(−)/iLi-9a ([2]; 200 mV/s) | current ratio i9a(−)/iLi-9a ([2]; 500 mV/s) | potential at which charged anolyte is oxidized (discharged) ([2]; MeCN, 0.1 M LiBF4) [V] | current at +0.4 V (lithium adduct formation) ([2]; MeCN, 0.1 M LiBF4, 200 mV/s) | first single-electron reduction (step i) [2, 5] [V] | second single-electron reduction (step ii) [2, 5] [V] | diffusion constant ([4]; from changes in potential at the first reductive couple with variable scan rates) | equilibrium constant for binding of Li^+ ([4]; from the fitted rate constants) [M⁻¹] | rate constant for Li^+ coordination [4, 6] [M⁻¹ s⁻¹] | rate constant for dissociation [4, 6] [s⁻¹] |
| --- | --- | --- | --- | --- | --- | --- | --- | --- | --- | --- | --- | --- | --- | --- | --- | --- | --- | --- | --- |
| CC(=O)c1cc[n+](C)cc1 [Compound 10a] | 1600 ± 100 | No measurable decomposition | 0.1 | close to 1 | 0.4 | no analogous current is observed | – | – | – | – | – | – | – | – | – | – | – | – | – |
| CC([O-])=C1C=CN(C)C=C1.[Na+] [Na-10a^(−)] | – | – | – | – | – | 40-50 μA and 45 μA | did not change | 62 ± 7 | – | – | – | – | – | – | – | – | – | – | – |
| COC(=O)c1cc[n+](C)cc1.F[B-](F)(F)F [Compound 9a] | – | – | – | – | – | – | – | – | 32 | 11 | 6 | −1.7 | almost no current was detected | −1.1 | −1.9 | ~2×10^−9 m^2/s | ~20 | 10 | 0.5 |
